Reference: ChEMBL document CHEMBL5528050, “Discovery of a Novel Series of Homo sapiens Caseinolytic Protease P Agonists for Colorectal Adenocarcinoma Treatment via ATF3-Dependent Integrated Stress Response” (J Med Chem, 2024)
The source made the active and inactive calls. No cut-off for these calls is given here.

Tests used:
HCT-116 [1] = assay: cells; conditions: Homo sapiens, HCT-116, 72 h
Description: Antiproliferative activity against human HCT-116 cells assessed as inhibition of cell growth measured after 72 hrs by CCK-8 method

HCT-116 [2] = assay: Upregulation of slug expression in human HCT-116 cells measured after 48 hrs by Western blot analysis; type: functional, cell-based
[3] = Cmax in Sprague-Dawley rat at 5 mg/kg, iv by LC-MS/MS analysis; type: ADME, organism-based; conditions: in vivo
[4] = Tmax in Sprague-Dawley rat at 15 mg/kg, po by LC-MS/MS analysis; type: ADME, organism-based; conditions: in vivo
[5] = Half life in Sprague-Dawley rat at 15 mg/kg, po by LC-MS/MS analysis; conditions: in vivo
[6] = Cmax in Sprague-Dawley rat at 15 mg/kg, po by LC-MS/MS analysis; type: ADME, organism-based; conditions: in vivo
[7] = AUC (0 to 12hrs) in Sprague-Dawley rat at 15 mg/kg, po by LC-MS/MS analysis; type: ADME, organism-based; conditions: in vivo
[8] = Clearance in Sprague-Dawley rat at 5 mg/kg, iv by LC-MS/MS analysis; type: ADME, organism-based; conditions: in vivo
[9] = MRT (0 to 12hrs) in Sprague-Dawley rat at 15 mg/kg, po by LC-MS/MS analysis; type: ADME, organism-based; conditions: in vivo
[10] = AUC (0 to 12hrs) in Sprague-Dawley rat at 5 mg/kg, iv by LC-MS/MS analysis; type: ADME, organism-based; conditions: in vivo
[11] = Half life in Sprague-Dawley rat at 5 mg/kg, iv by LC-MS/MS analysis; conditions: in vivo
[12] = MRT (0 to 12 hrs) in Sprague-Dawley rat at 5 mg/kg, iv by LC-MS/MS analysis; type: ADME, organism-based; conditions: in vivo
[13] = Oral bioavailability in Sprague-Dawley rat at 15 mg/kg by LC-MS/MS analysis; type: ADME, organism-based; conditions: in vivo
[14] = Antiproliferative activity against human L02 cells assessed as inhibition of cell growth measured after 72 hrs by CCK-8 method; type: toxicity, cell-based
[15] = target: T1, ATP-dependent Clp protease proteolytic subunit, mitochondrial (Homo sapiens, UniProt Q16740); conditions: filed as agonist, dose 100.0 µM, time 30.0 min
T1 sequence (Q16740 whole entry): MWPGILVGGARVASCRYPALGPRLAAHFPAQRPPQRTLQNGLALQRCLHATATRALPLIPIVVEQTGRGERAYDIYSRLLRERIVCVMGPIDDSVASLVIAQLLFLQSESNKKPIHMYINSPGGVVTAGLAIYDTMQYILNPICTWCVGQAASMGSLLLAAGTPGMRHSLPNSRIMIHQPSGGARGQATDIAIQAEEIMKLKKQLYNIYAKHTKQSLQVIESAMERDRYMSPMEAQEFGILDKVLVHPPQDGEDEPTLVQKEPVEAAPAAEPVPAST

SW480 = assay: cells; conditions: Homo sapiens, SW480, 72 h
Description: Antiproliferative activity against human SW480 cells assessed as inhibition of cell growth measured after 72 hrs by CCK-8 method

DLD-1 = assay: cells; conditions: Homo sapiens, DLD-1, 72 h
Description: Antiproliferative activity against human DLD-1 cells assessed as inhibition of cell growth measured after 72 hrs by CCK-8 method

[16] = Antiproliferative activity against rat H9c2 cells assessed as inhibition of cell growth measured after 72 hrs by CCK-8 method; type: toxicity, cell-based
Cell membrane = assay: Induction of mitochondrial membrane potential loss in human HCT-116 cells assessed as increase in green fluorescence at high dose measured after 48 hrs by JC-1 staining based microscopy analysis; type: cell membranes
HCT-116 [17] = assay: Induction of apoptosis in human HCT-116 cells assessed as cell death at 20 uM measured after 48 hrs by annexin V-FITC/7-AAD based flow cytometry analysis relative to control; type: functional
HCT-116 [18] = assay: Induction of apoptosis in human HCT-116 cells assessed as apoptotic rate at low dose measured after 48 hrs by annexin V-FITC/7-AAD based flow cytometry analysis relative to control; type: functional
HCT-116 [19] = assay: Antiproliferative activity against ClpP knockdown human HCT-116 cells assessed as fold increase in IC50; type: functional
[20] = target: T1, ATP-dependent Clp protease proteolytic subunit, mitochondrial; assay: Binding affinity to human ClpP expressed in Escherichia coli assessed as dissociation constant by ITC method
HCT-116 [21] = assay: Induction of cell cycle arrest in human HCT-116 cells assessed as effect on number of cells at G1 phase at 5 to 20 uM measured after 48 hrs by PI staining based flow cytometry analysis; type: functional; conditions: dose 5-20 µM
[22] = target: T1, ATP-dependent Clp protease proteolytic subunit, mitochondrial; assay: Agonist activity at human ClpP expressed in Escherichia coli using AC-WLA-AMC as substrate measured every 5 mins for 1 hr by fluorescence based analysis
HCT-116 [23] = assay: Inhibition of mitochondrial function in human HCT-116 cells assessed as reduction in ATP production; type: functional, cell-based
HCT-116 [24] = assay: Induction of apoptosis in human HCT-116 cells assessed as apoptotic rate at medium dose measured after 48 hrs by annexin V-FITC/7-AAD based flow cytometry analysis relative to control; type: functional
HCT-116 [25] = assay: Induction of cell cycle arrest in human HCT-116 cells assessed as increase in number of cells at G2 phase at 5 uM measured after 48 hrs by PI staining based flow cytometry analysis; type: functional
HCT-116 [26] = assay: Antiproliferative activity against human HCT-116 cells assessed reduction in clone formation measured after 48 hrs by crystal violet staining based analysis; type: functional, cell-based
HCT-116 [27] = assay: Induction of apoptosis in human HCT-116 cells measured after 48 hrs by annexin V-FITC/7-AAD based flow cytometry analysis; type: functional, cell-based
HCT-116 [28] = assay: Inhibition of cell migration in human HCT-116 cells at 5 to 20 uM measured after 24 to 48 hrs by microscopy based analysis; type: functional; conditions: dose 5-20 µM, time 24-48 hrs
[29] = Antiproliferative activity against human HCoEpiC cells assessed as inhibition of cell growth measured after 72 hrs by CCK-8 method; type: toxicity, cell-based
HCT-15 = assay: cells; conditions: Homo sapiens, HCT-15, 72 h
Description: Antiproliferative activity against human HCT-15 cells assessed as inhibition of cell growth measured after 72 hrs by CCK-8 method

[30] = Antiproliferative activity against HEK293 cells assessed as inhibition of cell growth measured after 72 hrs by CCK-8 method; type: toxicity, cell-based; conditions: human
HCT-116 [31] = assay: Induction of ROS generation in human HCT-116 cells assessed as increase in intracellular ROS level measured after 48 hrs DCFH-DA staining based analysis; type: functional, cell-based
HCT-116 [32] = assay: Induction of cell cycle arrest in human HCT-116 cells assessed as increase in number of cells at G2 phase at high dose measured after 48 hrs by PI staining based flow cytometry analysis; type: functional
SW-620 = assay: cells; conditions: Homo sapiens, SW-620, 72 h
Description: Antiproliferative activity against human SW-620 cells assessed as inhibition of cell growth measured after 72 hrs by CCK-8 method

SMILES: N#Cc1cccc(CN2CCCC(C(=O)NCc3ccc(Cl)c(Cl)c3)C2)c1 (stereo unspecified)
- IC50 (HCT-116 [1]): 25.3 µM

SMILES: O=C(Nc1ccc(Cl)cc1)C1CCCN(C(=O)Cc2cc(Cl)ccc2F)C1 (stereo unspecified)
- IC50 (HCT-116 [1]): 67.5 µM

SMILES: O=C(Nc1ccc(Oc2ccccc2)cc1)C1CCCN(C(=O)c2cc(C(F)(F)F)cc(C(F)(F)F)c2)C1 (stereo unspecified)
- IC50 (HCT-116 [1]): 40.1 µM

SMILES: O=C(Nc1ccc(Cl)c(Cl)c1)C1CCCN(C(=O)c2cc(C(F)(F)F)cc(C(F)(F)F)c2)C1 (stereo unspecified)
- IC50 (HCT-116 [1]): 15.7 µM

SMILES: O=C(NCc1ccc(C(F)(F)F)cc1)C1=CCCN(Cc2ccccc2)C1
- Activity (HCT-116 [2]): Active
- IC50 (HCT-116 [1]): 50.4 µM

SMILES: Cc1ccccc1CN1C(=O)C2=C(CCN(Cc3ccccc3)C2)N2CCN=C12 [DORDAVIPRONE]
- Cmax [3]: 2770 ng/mL
- Tmax [4]: 24 min
- half-life [5]: 66 min
- Cmax [6]: 566 ng/mL
- AUC(0-t) [7]: 894 ng·h/mL
- clearance [8]: 42.7 mL/min/kg
- MRT last [9]: 90 min
- AUC(0-t) [10]: 1960 ng·h/mL
- half-life [11]: 54 min
- MRT last [12]: 54 min
- bioavailability [13]: 15.3%

SMILES: N#Cc1cccc(CN2CCC=C(C(=O)Nc3ccc(Cl)cc3)C2)c1
- IC50 (HCT-116 [1]): 2.5 µM

SMILES: O=C(Nc1ccc(Cl)cc1)C1=CCCN(Cc2ccccc2)C1
- IC50 (HCT-116 [1]): 83.5 µM

SMILES: CC(NC(=O)c1cc(C(F)(F)F)cc(C(F)(F)F)c1)C(=O)Nc1ccc(Cl)cc1 (stereo unspecified)
- IC50 (HCT-116 [1]): 58.4 µM

SMILES: O=C(NCCc1ccc(Cl)cc1)C1CCCN(C(=O)c2cc(C(F)(F)F)cc(C(F)(F)F)c2)C1 (stereo unspecified)
- IC50 (HCT-116 [1]): 56.5 µM

SMILES: O=C(NCc1ccc(C(F)(F)F)cc1)C1=CCCN(Cc2ccc(F)c(F)c2)C1
- IC50 (HCT-116 [1]): 25.6 µM

SMILES: O=C(Nc1ccc(Cl)cc1)C1CCCN(C(=O)c2cc(C(F)(F)F)cc(C(F)(F)F)c2)C1 (stereo unspecified)
- IC50 (HCT-116 [1]): 16.7 µM

SMILES: O=C(Nc1cc(Cl)c(Cl)c(Cl)c1)C1CCCN(C(=O)c2cc(C(F)(F)F)cc(C(F)(F)F)c2)C1 (stereo unspecified)
- IC50 (HCT-116 [1]): 16.4 µM

SMILES: O=C(CCNC(=O)c1cc(C(F)(F)F)cc(C(F)(F)F)c1)Nc1ccc(Cl)cc1
- IC50 (HCT-116 [1]): 64.5 µM

SMILES: O=C(Nc1ccc(Cl)cc1)c1cccc(NC(=O)c2cc(C(F)(F)F)cc(C(F)(F)F)c2)c1
- IC50 (HCT-116 [1]): 25.3 µM

SMILES: O=C(NCc1ccc(C(F)(F)F)cc1)C1=CCCN(Cc2cccc(F)c2)C1
- IC50 (HCT-116 [1]): 20.1 µM

SMILES: O=C(NCc1ccc(C(F)(F)F)cc1)C1CCCN(C(=O)c2cc(C(F)(F)F)cc(C(F)(F)F)c2)C1 (stereo unspecified)
- IC50 (HCT-116 [1]): 25.1 µM

SMILES: N#Cc1cccc(CN2CCCC(C(=O)NCc3ccc(C(F)(F)F)cc3)C2)c1 (stereo unspecified)
- IC50 (HCT-116 [1]): 20.4 µM

SMILES: CC(C)(C)c1ccc(CNC(=O)C2CCCN(Cc3cccc(C#N)c3)C2)cc1 (stereo unspecified)
- IC50 (HCT-116 [1]): 40 µM

SMILES: CC(ONC(=O)c1cc(C(F)(F)F)cc(C(F)(F)F)c1)C(=O)Nc1ccc(Cl)cc1 (stereo unspecified)
- IC50 at 72 h [14]: 30.4 µM
- ΔTm [15]: 4 °C
- IC50 (SW480): 41.3 µM
- IC50 (DLD-1): 29.8 µM
- IC50 at 72 h [16]: 35.5 µM
- Activity (Cell membrane): Active
- Activity (HCT-116 [17]): 40%
- Activity (HCT-116 [18]): 15%
- fold change (FC) (HCT-116 [19]): 1.5
- Kd [20]: 8.41 µM
- Activity (HCT-116 [21]): inactive
- EC50 [22]: 0.0105 µM
- inhibition (HCT-116 [23]): Active
- Activity (HCT-116 [24]): 22%
- Activity (HCT-116 [25]): 20%
- Activity (HCT-116 [26]): Dose-Dependent Effect
- Activity (HCT-116 [27]): Dose-Dependent Effect
- inhibition (HCT-116 [28]): Active
- IC50 at 72 h [29]: 61.7 µM
- IC50 (HCT-15): 37.5 µM
- IC50 at 72 h [30]: 55.4 µM
- Activity (HCT-116 [31]): Active
- Activity (HCT-116 [32]): ~40%
- IC50 (HCT-116 [1]): 20.5 µM
- IC50 (SW-620): 15.5 µM

SMILES: O=C(Nc1ccc(Cl)cc1)C1=CCCN(C(=O)c2cc(C(F)(F)F)cc(C(F)(F)F)c2)C1
- IC50 (HCT-116 [1]): 40.3 µM

SMILES: N#Cc1cccc(CN2CCCC(C(=O)NCc3ccc4c(c3)OCO4)C2)c1 (stereo unspecified)
- IC50 (HCT-116 [1]): 50 µM

SMILES: O=C(NCc1ccc(C(F)(F)F)cc1)C1=CCCN(Cc2cc(C(F)(F)F)cc(C(F)(F)F)c2)C1
- IC50 (HCT-116 [1]): 25.3 µM

SMILES: O=C(NCc1ccc(C(F)(F)F)cc1)C1=CCCN(C(=O)c2cc(C(F)(F)F)cc(C(F)(F)F)c2)C1
- IC50 (HCT-116 [1]): 20.5 µM

SMILES: N#Cc1cccc(CN2CCCC(C(=O)Nc3ccc(Cl)cc3)C2)c1 (stereo unspecified)
- IC50 (HCT-116 [1]): 20.3 µM

SMILES: O=C(Nc1ccc(Cl)cc1)C1CCCN(C(=O)c2cccc(-c3ccco3)c2)C1 (stereo unspecified)
- IC50 (HCT-116 [1]): 76.5 µM

SMILES: N#Cc1cccc(CN2CCCC(C(=O)NCc3ccc(Cl)cc3Cl)C2)c1 (stereo unspecified)
- IC50 (HCT-116 [1]): 40.9 µM

SMILES: O=C(NCc1ccc2c(c1)OCO2)C1CCCN(C(=O)c2cc(C(F)(F)F)cc(C(F)(F)F)c2)C1 (stereo unspecified)
- IC50 (HCT-116 [1]): 95.3 µM

SMILES: CC1(C)CCC(NC(=O)C2CCCN(C(=O)c3cc(C(F)(F)F)cc(C(F)(F)F)c3)C2)CC1 (stereo unspecified)
- IC50 (HCT-116 [1]): 80.4 µM

SMILES: O=C(Nc1ccc(C(F)(F)F)cc1)C1CCCN(C(=O)c2cc(C(F)(F)F)cc(C(F)(F)F)c2)C1 (stereo unspecified)
- IC50 (HCT-116 [1]): 30 µM

SMILES: O=C(NCc1ccccc1)C1=CCCN(Cc2ccccc2)C1
- IC50 (HCT-116 [1]): 55.4 µM

SMILES: O=C(Nc1cccc(Cl)c1)C1CCCN(C(=O)c2cc(C(F)(F)F)cc(C(F)(F)F)c2)C1 (stereo unspecified)
- IC50 (HCT-116 [1]): 30.5 µM

SMILES: N#Cc1cccc(CN2CCCC(C(=O)NCc3ccc4ccccc4c3)C2)c1 (stereo unspecified)
- IC50 (HCT-116 [1]): 48.3 µM

SMILES: O=C(NCCNC(=O)c1cc(C(F)(F)F)cc(C(F)(F)F)c1)c1ccc(Cl)cc1
- IC50 (HCT-116 [1]): 76.9 µM

SMILES: O=C(Nc1ccncc1)C1CCCN(C(=O)c2cc(C(F)(F)F)cc(C(F)(F)F)c2)C1 (stereo unspecified)
- IC50 (HCT-116 [1]): 59.7 µM

SMILES: N#Cc1cccc(CN2CCCC(C(=O)NCc3ccc(Cl)cc3)C2)c1 (stereo unspecified)
- IC50 (HCT-116 [1]): 22.1 µM
